# Results: ChEMBL document CHEMBL3769374, “Novel N-thiazolyl piperazine-1-carboxamide CCR2 antagonists investigation of an unexpected reaction with glutathione” (Medchemcomm, 2015)
# How the values were obtained:
# [1] = molecular target: C-C chemokine receptor type 2 (Homo sapiens, UniProt P41597); assay: Antagonist activity at human C-C chemokine receptor type 2 expressed in THP-1 cells assessed as inhibition of CCL2-induced calcium flux preincubated for 10 mins followed by CCL2 addition by Fluo-4 dye based FLIPR assay; format: functional, cell-based
# C-C chemokine receptor type 2 (Homo sapiens, UniProt P41597), sequence (P41597 whole entry): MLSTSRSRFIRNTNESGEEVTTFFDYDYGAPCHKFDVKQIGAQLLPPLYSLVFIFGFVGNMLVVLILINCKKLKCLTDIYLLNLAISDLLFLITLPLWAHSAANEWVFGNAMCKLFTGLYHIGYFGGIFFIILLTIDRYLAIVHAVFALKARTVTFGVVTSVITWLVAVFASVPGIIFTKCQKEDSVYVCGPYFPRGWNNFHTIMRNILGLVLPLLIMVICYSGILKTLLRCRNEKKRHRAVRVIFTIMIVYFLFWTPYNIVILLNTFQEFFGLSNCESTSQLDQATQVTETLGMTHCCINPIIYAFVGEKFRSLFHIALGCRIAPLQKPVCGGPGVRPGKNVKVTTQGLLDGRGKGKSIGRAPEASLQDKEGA
# [2] = Glutathione reactivity at 50 uM measured over 18 hrs by LC-UV method
# [3] = molecular target: T1, C-C chemokine receptor type 2 (Rattus norvegicus, UniProt O55193); assay: Antagonist activity at rat C-C chemokine receptor type 2 assessed as inhibition of CCL2-induced calcium flux; format: functional
# T1 sequence (O55193 whole entry): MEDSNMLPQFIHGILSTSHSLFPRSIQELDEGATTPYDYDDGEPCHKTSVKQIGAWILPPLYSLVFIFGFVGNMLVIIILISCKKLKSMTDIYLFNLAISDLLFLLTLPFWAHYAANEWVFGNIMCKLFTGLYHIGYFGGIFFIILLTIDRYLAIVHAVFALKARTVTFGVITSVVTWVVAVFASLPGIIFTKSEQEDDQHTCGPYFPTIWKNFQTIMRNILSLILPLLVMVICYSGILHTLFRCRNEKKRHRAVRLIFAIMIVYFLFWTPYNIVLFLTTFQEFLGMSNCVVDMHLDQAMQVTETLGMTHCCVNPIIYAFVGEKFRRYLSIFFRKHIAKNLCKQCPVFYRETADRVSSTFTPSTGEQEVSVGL
# [4] = Glutathione reactivity assessed as half life of compound at 50 uM measured over 18 hrs by LC-UV method; format: physicochemical; settings: glutathione solution (chemical reactivity test)
SMILES,IC50 [1],Drug metabolism [2],IC50 [3],half-life at 50 µM [4]
COc1sc(NC(=O)N2CCN(C(=O)[C@H]3CN(C(C)(C)C)CCN3)CC2)nc1C,41 nM,Metabolite not detected,,
CC(C)(C)N1CCN[C@@H](C(=O)N2CCN(C(=O)Nc3nc(C4CC4)c(Cl)s3)CC2)C1,< 0.45 nM,,,
CC(C)(C)N1CCN[C@@H](C(=O)N2CCN(C(=O)Nc3nc(C(F)(F)F)c(Cl)s3)CC2)C1,0.13 nM,Metabolite not detected,1.3 nM,
CC(C)(C)N1CCN[C@@H](C(=O)N2CCN(C(=O)Nc3ncc(F)s3)CC2)C1,9.2 nM,Metabolite not detected,,
Cc1nc(NC(=O)N2CCN(C(=O)[C@H]3CN(C(C)(C)C)CCN3)CC2)sc1Cl,0.65 nM,,,
Cc1nc(NC(=O)N2CCN(C(=O)[C@H]3CN(C(C)(C)C)CCN3)CC2)sc1Br,< 0.45 nM,,,
CC(C)c1nc(NC(=O)N2CCN(C(=O)[C@H]3CN(C(C)C)CCN3)CC2)sc1Cl,1.2 nM,,,
CC(=O)Nc1nc(C)c(Br)s1,,Metabolite not detected,,
CC(C)N1CCN[C@@H](C(=O)N2CCN(C(=O)Nc3nc(C(C)(C)C)c(Cl)s3)CC2)C1,2.3 nM,,,
O=[N+]([O-])c1ccc(CCl)cc1,,,,3.6 h
CC(C)(C)N1CCN[C@@H](C(=O)N2CCN(C(=O)Nc3ncc(Cl)s3)CC2)C1,7.4 nM,Metabolite not detected,,
CC(C)N1CCN[C@@H](C(=O)N2CCN(C(=O)Nc3nc(C(C)(C)C)c(F)s3)CC2)C1,2.7 nM,Metabolite not detected,,
CC(C)(C)N1CCN[C@@H](C(=O)N2CCN(C(=O)Nc3nc(C4CC4)cs3)CC2)C1,1.1 nM,Metabolite not detected,,
CCc1nc(NC(=O)N2CCN(C(=O)[C@H]3CN(C(C)C)CCN3)CC2)sc1Cl,1.7 nM,,,
